According to PubChem BioAssay AID1592 (Sanford-Burnham Center for Chemical Genomics, 2009):
Activity calls are given as the source filed them.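 How the source made its calls: active means less than 90% of the starting compound still present after 180 minutes in mouse plasma; inactive means 90% or more still present.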

System: mouse plasma stability, LC/MS/MS, 180 min
Test: mouse plasma degradation, percent remaining – biochemical, LC/MS/MS, 180 min, dry powder, ADME assay, late-stage follow-up (AID 1592)
Details: at 1 µM; hits give low values

percent remaining: 93.2% (inactive)
Structure (SMILES): C=CCn1c(SCC(=O)c2ccc(O)c(O)c2)nnc1-c1ccccc1OC
